Source: patent US20100298141A1, “SUBSTITUTED PYRIDINE N-OXIDE HERBICIDES” (E. I. DU PONT DE NEMOURS AND COMPANY, priority 2007, published 2010)

Experiments:
barnyardgrass [1] = test: Test A pre-/postemergence greenhouse test; assay type: in vivo, Echinochloa crus-galli; details: for Barnyardgrass plant response rating: 0 to 100 scale; for Plant response rating, Barnyardgrass: 0 to 100 scale where 0 is no effect and 100 is complete control
Procedure, shortened: (§1)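 Visual injury ratings against untreated controls, taken roughly ten days after treatment in greenhouse. Plants were sprayed postemergence at one- to two-leaf stage (2–10 cm tall); at the same time, seeded loam/sand soil received a directed preemergence spray. Formulation: non-phytotoxic solvent mixture with surfactant.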

crabgrass = test: Test A pre-/postemergence greenhouse test; assay type: in vivo, Digitaria sanguinalis; details: for Crabgrass, Large plant response rating: 0 to 100 scale; for Plant response rating, Crabgrass, Large: 0 to 100 scale where 0 is no effect and 100 is complete control
Procedure, shortened: as §1

giant foxtail = test: Test A pre-/postemergence greenhouse test; assay type: in vivo, Setaria faberi; details: for Foxtail, Giant plant response rating: 0 to 100 scale; for Plant response rating, Foxtail, Giant: 0 to 100 scale where 0 is no effect and 100 is complete control
Procedure, shortened: as §1

morningglory = test: Test A pre-/postemergence greenhouse test; assay type: in vivo, Ipomoea spp.; details: for Morningglory plant response rating: 0 to 100 scale; for Plant response rating, Morningglory: 0 to 100 scale where 0 is no effect and 100 is complete control
Procedure, shortened: as §1

redroot pigweed = test: Test A pre-/postemergence greenhouse test; assay type: in vivo, Amaranthus retroflexus; details: for Pigweed plant response rating: 0 to 100 scale; for Plant response rating, Pigweed: 0 to 100 scale where 0 is no effect and 100 is complete control
Procedure, shortened: as §1

velvetleaf = test: Test A pre-/postemergence greenhouse test; assay type: in vivo, Abutilon theophrasti; details: for Velvetleaf plant response rating: 0 to 100 scale; for Plant response rating, Velvetleaf: 0 to 100 scale where 0 is no effect and 100 is complete control
Procedure, shortened: as §1

wheat = test: Test A pre-/postemergence greenhouse test; assay type: in vivo, Triticum aestivum; details: for Wheat plant response rating: 0 to 100 scale; for Plant response rating, Wheat: 0 to 100 scale where 0 is no effect and 100 is complete control
Procedure, shortened: as §1

corn = test: Test A pre-/postemergence greenhouse test; assay type: in vivo, Zea mays; details: for Corn plant response rating: 0 to 100 scale; for Plant response rating, Corn: 0 to 100 scale where 0 is no effect and 100 is complete control
Procedure, shortened: as §1

rice = test: Test C flooded paddy test; assay type: in vivo, Oryza sativa; details: Flood
Procedure, shortened: (§2)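 Compound was added to standing water 3 cm above soil, flood maintained, and plants held in a greenhouse before visual scoring against controls at 13 to 15 days.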

umbrella sedge = test: Test C flooded paddy test; assay type: in vivo, Cyperus difformis; details: Flood
Procedure, shortened: as §2

duck salad = test: Test C flooded paddy test; assay type: in vivo, Heteranthera limosa; details: Flood
Procedure, shortened: as §2

barnyardgrass [2] = test: Test C flooded paddy test; assay type: in vivo, Echinochloa crus-galli; details: Flood
Procedure, shortened: as §2

[3] = Postemergence, 125 g ai/ha, 0 is no effect, 100 is complete control
[4] = Postemergence, 500 g ai/ha, 0 is no effect, 100 is complete control
[5] = Preemergence, 125 g ai/ha, 0 no effect, 100 complete control
[6] = 31 g ai/ha, scale 0 to 100 (0 no effect, 100 complete control)
[7] = 62 g ai/ha, scale 0 to 100, 0 no effect, 100 complete control, 13 to 15 days
[8] = 125 g ai/ha, scale 0 to 100, 0 no effect, 100 complete control, 13 to 15 days
[9] = 250 g ai/ha, scale 0 to 100, 0 no effect, 100 complete control, 13 to 15 days
[10] = Preemergence, 500 g ai/ha, 0 no effect, 100 complete control
[11] = 62 g ai/ha, scale 0 to 100 (0 no effect, 100 complete control)

## Cn1nc(C(F)(F)F)c(CS(=O)(=O)c2cc(F)cc[n+]2[O-])c1Cl [Compound 41]
Barnyardgrass [1]; [3]
  Barnyardgrass plant response rating: 0
Barnyardgrass [1]; [4]
  Barnyardgrass plant response rating: 0
Barnyardgrass [1]; [5]
  Barnyardgrass plant response rating: 0
Barnyardgrass [1]; Preemergence, 500 g ai/ha
  Plant response rating, Barnyardgrass: 60
crabgrass; [3]
  Crabgrass, Large plant response rating: 0
crabgrass; [4]
  Crabgrass, Large plant response rating: 0
crabgrass; [5]
  Crabgrass, Large plant response rating: 0
crabgrass; Preemergence, 500 g ai/ha
  Plant response rating, Crabgrass, Large: 0
Giant foxtail; [3]
  Foxtail, Giant plant response rating: 0
Giant foxtail; [4]
  Foxtail, Giant plant response rating: 0
Giant foxtail; [5]
  Foxtail, Giant plant response rating: 0
Giant foxtail; Preemergence, 500 g ai/ha
  Plant response rating, Foxtail, Giant: 0
morningglory; [3]
  Morningglory plant response rating: 0
morningglory; [4]
  Morningglory plant response rating: 0
morningglory; [5]
  Morningglory plant response rating: 0
morningglory; Preemergence, 500 g ai/ha
  Plant response rating, Morningglory: 20
Redroot pigweed; [3]
  Pigweed plant response rating: 0
Redroot pigweed; [4]
  Pigweed plant response rating: 0
Redroot pigweed; [5]
  Pigweed plant response rating: 0
Redroot pigweed; Preemergence, 500 g ai/ha
  Plant response rating, Pigweed: 0
velvetleaf; [3]
  Velvetleaf plant response rating: 0
velvetleaf; [4]
  Velvetleaf plant response rating: 0
velvetleaf; [5]
  Velvetleaf plant response rating: 0
velvetleaf; Preemergence, 500 g ai/ha
  Plant response rating, Velvetleaf: 0
wheat; [3]
  Wheat plant response rating: 0
wheat; [4]
  Wheat plant response rating: 0
wheat; [5]
  Wheat plant response rating: 0
wheat; Preemergence, 500 g ai/ha
  Plant response rating, Wheat: 0
corn; [3]
  Corn plant response rating: 0
corn; [4]
  Corn plant response rating: 0
corn; [5]
  Corn plant response rating: 0
corn; Preemergence, 500 g ai/ha
  Plant response rating, Corn: 30
rice; [6]
  Plant response rating, Rice: 0
rice; [7]
  Plant response rating, Rice: 0
rice; [8]
  Plant response rating, Rice: 0
rice; [9]
  Plant response rating, Rice: 15
Umbrella sedge; [6]
  Plant response rating, Sedge, Umbrella: 80
Umbrella sedge; [7]
  Plant response rating, Sedge, Umbrella: 80
Umbrella sedge; [8]
  Plant response rating, Sedge, Umbrella: 80
Umbrella sedge; [9]
  Plant response rating, Sedge, Umbrella: 80
Duck salad; [6]
  Plant response rating, Ducksalad: 75
Duck salad; [7]
  Plant response rating, Ducksalad: 75
Duck salad; [8]
  Plant response rating, Ducksalad: 75
Duck salad; [9]
  Plant response rating, Ducksalad: 80
Barnyardgrass [2]; [6]
  Plant response rating, Barnyardgrass: 0
Barnyardgrass [2]; [7]
  Plant response rating, Barnyardgrass: 0
Barnyardgrass [2]; [8]
  Plant response rating, Barnyardgrass: 0
Barnyardgrass [2]; [9]
  Plant response rating, Barnyardgrass: 0

## Cn1nc(C(F)(F)F)c(CS(=O)(=O)c2ccc(F)c[n+]2[O-])c1OCC(F)(F)F [Compound 106]
Barnyardgrass [1]; Postemergence, 125 g ai/ha
  Plant response rating, Barnyardgrass: 40
Barnyardgrass [1]; [4]
  Barnyardgrass plant response rating: 70
Barnyardgrass [1]; [5]
  Barnyardgrass plant response rating: 40
Barnyardgrass [1]; [10]
  Barnyardgrass plant response rating: 90
crabgrass; Postemergence, 125 g ai/ha
  Plant response rating, Crabgrass, Large: 30
crabgrass; [4]
  Crabgrass, Large plant response rating: 80
crabgrass; [5]
  Crabgrass, Large plant response rating: 60
crabgrass; [10]
  Crabgrass, Large plant response rating: 80
Giant foxtail; Postemergence, 125 g ai/ha
  Plant response rating, Foxtail, Giant: 50
Giant foxtail; [4]
  Foxtail, Giant plant response rating: 80
Giant foxtail; [5]
  Foxtail, Giant plant response rating: 40
Giant foxtail; [10]
  Foxtail, Giant plant response rating: 80
morningglory; Postemergence, 125 g ai/ha
  Plant response rating, Morningglory: 0
morningglory; [4]
  Morningglory plant response rating: 30
morningglory; [5]
  Morningglory plant response rating: 10
morningglory; [10]
  Morningglory plant response rating: 50
Redroot pigweed; Postemergence, 125 g ai/ha
  Plant response rating, Pigweed: 0
Redroot pigweed; [4]
  Pigweed plant response rating: 50
Redroot pigweed; [5]
  Pigweed plant response rating: 70
Redroot pigweed; [10]
  Pigweed plant response rating: 80
velvetleaf; Postemergence, 125 g ai/ha
  Plant response rating, Velvetleaf: 0
velvetleaf; [4]
  Velvetleaf plant response rating: 20
velvetleaf; [5]
  Velvetleaf plant response rating: 0
velvetleaf; [10]
  Velvetleaf plant response rating: 60
wheat; Postemergence, 125 g ai/ha
  Plant response rating, Wheat: 0
wheat; [4]
  Wheat plant response rating: 0
wheat; [5]
  Wheat plant response rating: 0
wheat; [10]
  Wheat plant response rating: 0
corn; Postemergence, 125 g ai/ha
  Plant response rating, Corn: 0
corn; [4]
  Corn plant response rating: 0
corn; [5]
  Corn plant response rating: 0
corn; [10]
  Corn plant response rating: 0
rice; [6]
  Plant response rating, Rice: 0
rice; [11]
  Plant response rating, Rice: 0
rice; [8]
  Plant response rating, Rice: 20
rice; [9]
  Plant response rating, Rice: 25
Umbrella sedge; [6]
  Plant response rating, Sedge, Umbrella: 0
Umbrella sedge; [11]
  Plant response rating, Sedge, Umbrella: 0
Umbrella sedge; [8]
  Plant response rating, Sedge, Umbrella: 0
Umbrella sedge; [9]
  Plant response rating, Sedge, Umbrella: 30
Duck salad; [6]
  Plant response rating, Ducksalad: 0
Duck salad; [11]
  Plant response rating, Ducksalad: 50
Duck salad; [8]
  Plant response rating, Ducksalad: 60
Duck salad; [9]
  Plant response rating, Ducksalad: 80
Barnyardgrass [2]; [6]
  Plant response rating, Barnyardgrass: 0
Barnyardgrass [2]; [11]
  Plant response rating, Barnyardgrass: 0
Barnyardgrass [2]; [8]
  Plant response rating, Barnyardgrass: 15
Barnyardgrass [2]; [9]
  Plant response rating, Barnyardgrass: 20
